Laboratory results as given in ChEMBL document CHEMBL1765075, “Discovery and structure-activity relationship of 3-aminopyrid-2-ones as potent and selective interleukin-2 inducible T-cell kinase (Itk) inhibitors” (J Med Chem, 2011).
≈ marks a conversion by molar mass, not a printed value. Calls of active or inactive are those of the source. No cut-off for these calls is given here.

Assays:
[1] = target: Tyrosine-protein kinase ITK/TSK (Homo sapiens) (UniProt Q08881); test: Inhibition of Itk at 30 uM after 40 mins by radiometric phosphate incorporation assay
[2] = target: T1, Tyrosine-protein kinase ITK/TSK (Homo sapiens, UniProt Q08881); test: Inhibition of Itk after 40 mins by radiometric phosphate incorporation assay
T1 sequence (Q08881 whole entry): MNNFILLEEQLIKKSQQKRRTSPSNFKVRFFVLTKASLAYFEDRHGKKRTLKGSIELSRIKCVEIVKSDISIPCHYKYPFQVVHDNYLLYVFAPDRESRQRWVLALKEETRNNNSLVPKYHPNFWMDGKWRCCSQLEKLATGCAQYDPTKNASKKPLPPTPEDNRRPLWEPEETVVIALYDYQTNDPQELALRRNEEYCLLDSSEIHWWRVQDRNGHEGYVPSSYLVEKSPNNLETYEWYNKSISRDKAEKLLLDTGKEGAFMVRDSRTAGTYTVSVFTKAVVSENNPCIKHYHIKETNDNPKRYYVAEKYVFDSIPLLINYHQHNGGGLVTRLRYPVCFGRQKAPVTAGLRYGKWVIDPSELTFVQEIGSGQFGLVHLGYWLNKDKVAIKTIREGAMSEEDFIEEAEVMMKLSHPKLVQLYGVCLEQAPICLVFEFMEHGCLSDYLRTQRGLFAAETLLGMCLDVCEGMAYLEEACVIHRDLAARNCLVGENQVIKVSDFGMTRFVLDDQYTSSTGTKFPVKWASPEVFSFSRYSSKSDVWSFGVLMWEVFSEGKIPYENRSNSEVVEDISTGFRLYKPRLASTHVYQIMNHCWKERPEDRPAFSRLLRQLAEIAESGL

[3] = target: Mast/stem cell growth factor receptor Kit (Homo sapiens, UniProt P10721); test: Inhibition of c-Kit after 45 mins by radiometric phosphate incorporation assay
Sequence of Mast/stem cell growth factor receptor Kit (P10721 whole entry): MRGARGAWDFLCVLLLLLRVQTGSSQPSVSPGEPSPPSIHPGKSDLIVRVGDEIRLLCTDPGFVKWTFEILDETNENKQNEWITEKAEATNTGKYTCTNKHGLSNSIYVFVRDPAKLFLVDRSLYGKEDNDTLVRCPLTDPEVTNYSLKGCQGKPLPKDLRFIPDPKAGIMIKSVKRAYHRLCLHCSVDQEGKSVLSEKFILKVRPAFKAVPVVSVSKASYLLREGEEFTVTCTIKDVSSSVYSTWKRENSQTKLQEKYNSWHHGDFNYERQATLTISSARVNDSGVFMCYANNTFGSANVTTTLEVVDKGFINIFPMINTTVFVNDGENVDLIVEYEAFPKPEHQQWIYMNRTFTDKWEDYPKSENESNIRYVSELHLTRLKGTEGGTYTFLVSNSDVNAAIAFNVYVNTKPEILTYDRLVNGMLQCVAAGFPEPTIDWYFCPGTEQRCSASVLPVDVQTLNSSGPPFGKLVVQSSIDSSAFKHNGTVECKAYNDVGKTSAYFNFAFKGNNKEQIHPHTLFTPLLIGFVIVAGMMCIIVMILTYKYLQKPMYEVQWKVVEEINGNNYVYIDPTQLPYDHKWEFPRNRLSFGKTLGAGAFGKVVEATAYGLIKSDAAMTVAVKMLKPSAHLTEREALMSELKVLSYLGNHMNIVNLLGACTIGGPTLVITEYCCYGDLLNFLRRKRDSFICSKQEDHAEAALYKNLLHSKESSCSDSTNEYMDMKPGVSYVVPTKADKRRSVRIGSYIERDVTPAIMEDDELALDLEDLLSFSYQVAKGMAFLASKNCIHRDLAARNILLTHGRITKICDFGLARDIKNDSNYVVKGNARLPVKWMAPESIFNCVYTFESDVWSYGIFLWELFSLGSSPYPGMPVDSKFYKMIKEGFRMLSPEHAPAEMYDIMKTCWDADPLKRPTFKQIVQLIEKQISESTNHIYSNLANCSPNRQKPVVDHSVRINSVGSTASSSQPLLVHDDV

[4] = target: T2, Receptor-type tyrosine-protein kinase FLT3 (Homo sapiens, UniProt P36888); test: Inhibition of Flt3 after 20 mins by radiometric phosphate incorporation assay
T2 sequence (P36888 whole entry): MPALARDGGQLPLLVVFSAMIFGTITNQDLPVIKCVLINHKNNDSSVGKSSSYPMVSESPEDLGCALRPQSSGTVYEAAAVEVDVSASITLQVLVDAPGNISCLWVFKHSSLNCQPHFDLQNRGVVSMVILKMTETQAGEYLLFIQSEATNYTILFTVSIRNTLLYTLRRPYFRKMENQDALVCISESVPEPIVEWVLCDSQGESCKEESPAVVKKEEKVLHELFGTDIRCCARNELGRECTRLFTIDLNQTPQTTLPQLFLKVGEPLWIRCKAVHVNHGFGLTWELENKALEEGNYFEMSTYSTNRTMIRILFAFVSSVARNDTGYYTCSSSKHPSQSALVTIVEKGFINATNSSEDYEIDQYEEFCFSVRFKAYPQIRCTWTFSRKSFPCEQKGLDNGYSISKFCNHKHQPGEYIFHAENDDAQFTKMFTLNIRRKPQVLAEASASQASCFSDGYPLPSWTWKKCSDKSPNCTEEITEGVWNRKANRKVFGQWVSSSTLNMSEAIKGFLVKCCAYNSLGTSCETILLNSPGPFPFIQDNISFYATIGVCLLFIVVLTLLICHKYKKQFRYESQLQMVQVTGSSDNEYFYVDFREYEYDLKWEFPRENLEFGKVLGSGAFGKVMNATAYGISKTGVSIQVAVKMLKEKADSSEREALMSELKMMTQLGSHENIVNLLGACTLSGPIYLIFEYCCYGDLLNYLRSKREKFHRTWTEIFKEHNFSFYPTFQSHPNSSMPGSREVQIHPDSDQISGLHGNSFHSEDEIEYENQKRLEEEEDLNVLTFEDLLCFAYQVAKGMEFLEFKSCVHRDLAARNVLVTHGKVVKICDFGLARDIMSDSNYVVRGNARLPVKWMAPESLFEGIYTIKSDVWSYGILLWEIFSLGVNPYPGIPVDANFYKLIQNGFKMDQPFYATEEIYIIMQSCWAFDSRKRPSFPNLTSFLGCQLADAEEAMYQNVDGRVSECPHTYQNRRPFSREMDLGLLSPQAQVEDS

[5] = target: Proto-oncogene tyrosine-protein kinase Src (Homo sapiens, UniProt P12931); test: Inhibition of Src after 10 mins by radiometric phosphate incorporation assay
Sequence of Proto-oncogene tyrosine-protein kinase Src (P12931 2-536 limits assumed): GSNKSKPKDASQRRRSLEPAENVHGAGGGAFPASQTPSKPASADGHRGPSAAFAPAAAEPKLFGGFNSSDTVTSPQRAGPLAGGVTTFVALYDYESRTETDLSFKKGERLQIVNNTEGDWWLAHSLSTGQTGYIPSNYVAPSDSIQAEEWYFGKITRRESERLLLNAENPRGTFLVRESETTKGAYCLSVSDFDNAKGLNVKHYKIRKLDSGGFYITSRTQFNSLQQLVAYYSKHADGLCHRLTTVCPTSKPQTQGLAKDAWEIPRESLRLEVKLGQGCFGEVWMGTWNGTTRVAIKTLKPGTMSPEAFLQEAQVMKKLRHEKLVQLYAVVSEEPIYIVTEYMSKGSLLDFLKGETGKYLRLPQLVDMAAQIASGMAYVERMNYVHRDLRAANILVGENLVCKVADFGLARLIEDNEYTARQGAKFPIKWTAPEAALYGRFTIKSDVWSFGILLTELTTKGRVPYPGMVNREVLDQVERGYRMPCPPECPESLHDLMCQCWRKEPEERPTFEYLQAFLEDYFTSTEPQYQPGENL

[6] = Octanol-phosphate buffer partition coefficient, log D of the compound at pH 7.4 by HPLC analysis; format: physicochemical
[7] = Solubility of the compound in phosphate buffer at pH 7.4 by high throughput shake flask assay; format: physicochemical
[8] = Permeability across apical to basolateral side of human Caco2 cells after 120 mins by LC-MS/MS analysis; format: ADME, cell-based; conditions: Caco-2, read-out: permeability
[9] = Permeability across basolateral to apical side of human Caco2 cells after 120 mins by LC-MS/MS analysis; format: ADME, cell-based; conditions: Caco-2, read-out: permeability
[10] = target: Tyrosine-protein kinase ITK/TSK (Homo sapiens) (UniProt Q08881); conditions: 3 uM
Description: Inhibition of Itk at 3 uM after 40 mins by radiometric phosphate incorporation assay

| Ki [2] | Ki [3] | Ki [4] | Ki [5] | also measured | Structure (SMILES) |
| --- | --- | --- | --- | --- | --- |
| – | – | – | – | inhibition [1]: inactive | Nc1cc(-c2ccncc2)c[nH]c1=O |
| 210 nM | 46 nM | 8 nM | 2800 nM | – | CN(C)c1ccc(C(=O)Nc2cc(-c3ccncc3)c[nH]c2=O)cc1 |
| 2100 nM | – | – | – | – | Cc1cccc(C(=O)Nc2cc(-c3ccncc3)c[nH]c2=O)c1 |
| 170 nM | – | – | – | – | O=C(Nc1cc(-c2ccncc2)c[nH]c1=O)c1ccc(N2CCCC2)cc1 |
| 16 nM | < 10 nM | 5 nM | – | – | CNc1nccc(-c2c[nH]c(=O)c(NC(=O)c3ccc(N4CCCCC4)cc3)c2)n1 |
| > 30000 nM | – | – | – | – | O=C(Nc1cc(-c2ccncc2)c[nH]c1=O)C1CCCCC1 |
| – | 148 nM | 69 nM | – | – | CNc1cccc(-c2c[nH]c(=O)c(NC(=O)c3ccc(N4CCCCC4)cc3)c2)n1 |
| 20 nM | 1300 nM | 140 nM | 280 nM | logD [6]: 2.9; solubility thermodynamic [7]: 115 µg/mL (≈ 243 µM) | CNc1cncc(-c2c[nH]c(=O)c(NC(=O)c3ccc(N4CCC[C@H]4CN4CCCC4)cc3)c2)c1 |
| – | 12 nM | 6 nM | – | – | CNc1cc(-c2c[nH]c(=O)c(NC(=O)c3ccc(N4CCCCC4)cc3)c2)ccn1 |
| 20 nM | 400 nM | 80 nM | 300 nM | logD [6]: 3.9; Papp A→B at 2 h [8]: 3.3 ×10⁻⁶ cm/s; solubility thermodynamic [7]: 34 µg/mL (≈ 69.4 µM); Papp B→A at 2 h [9]: 19.9 ×10⁻⁶ cm/s | CNc1cc(F)cc(-c2c[nH]c(=O)c(NC(=O)c3ccc(N4CCC[C@H]4CN4CCCC4)cc3)c2)c1 |
| – | 12 nM | 32 nM | 1800 nM | – | O=C(Nc1cc(-c2ccncc2)c[nH]c1=O)c1ccc(N2CCCCC2)cc1 |
| 27 nM | 400 nM | 410 nM | 480 nM | logD [6]: 3.9; Papp A→B at 2 h [8]: 3.3 ×10⁻⁶ cm/s; solubility thermodynamic [7]: 23 µg/mL (≈ 46.3 µM); Papp B→A at 2 h [9]: 16.4 ×10⁻⁶ cm/s | CNc1cc(C#N)cc(-c2c[nH]c(=O)c(NC(=O)c3ccc(N4CCC[C@H]4CN4CCCC4)cc3)c2)c1 |
| – | 270 nM | 1050 nM | – | – | CNc1cncc(-c2c[nH]c(=O)c(NC(=O)c3ccc(N4CCCCC4)cc3)c2)c1 |
| > 6000 nM | – | – | – | inhibition [10]: 15% | N#Cc1ccc(C(=O)Nc2cc(-c3ccncc3)c[nH]c2=O)cc1 |
| > 30000 nM | – | – | – | – | O=C(Cc1ccccc1)Nc1cc(-c2ccncc2)c[nH]c1=O |
| 120 nM | 27 nM | 11 nM | 1320 nM | – | CC(C)(C)c1ccc(C(=O)Nc2cc(-c3ccncc3)c[nH]c2=O)cc1 |
| 145 nM | 81 nM | 80 nM | 220 nM | – | CNc1cccc(-c2c[nH]c(=O)c(NC(=O)c3ccc(N4CCCCC4)cc3)c2)c1 |
| – | 83 nM | 20 nM | – | – | CNc1cc(-c2c[nH]c(=O)c(NC(=O)c3ccc(N4CCCCC4)cc3)c2)ncn1 |
| > 2000 nM | – | 120 nM | > 4000 nM | – | O=C(Nc1cc(-c2cccc(NC3CC3)n2)c[nH]c1=O)c1ccc(N2CCCCC2)cc1 |
| 140 nM | – | – | – | – | O=C(Nc1ccc(N2CCCCC2)cc1)c1cc(-c2ccncc2)c[nH]c1=O |
| 530 nM | – | – | – | – | CCc1ccc(C(=O)Nc2cc(-c3ccncc3)c[nH]c2=O)cc1 |
| 1300 nM | – | – | – | – | O=C(Nc1cc(-c2ccncc2)c[nH]c1=O)c1ccccc1 |
| – | 155 nM | 110 nM | – | – | CNc1cncc(-c2c[nH]c(=O)c(NC(=O)c3ccc(N4CCCCC4)cc3)c2)n1 |
| 220 nM | – | – | – | – | O=C(Nc1cc(-c2ccncc2)c[nH]c1=O)c1ccc(C2CCCCC2)cc1 |
